Assay [1] concerns Scopolamine Induced Memory Deficit. The assay is described as follows: Dark Avoidance Assay (reversal of scopolamine induced memory deficit). In kind it is in vivo. As to conditions: mice, s.c., tested again 24 hours later. Here is the method:
In this assay mice are tested for their ability to remember an unpleasant stimulus for a period of 24 hours. A mouse is placed in a chamber that contains a dark compartment; a strong incandescent light drives it to the dark compartment, where an electric shock is administered through metal plates on the floor. The animal is removed from the testing apparatus and tested again, 24 hours later, for the ability to remember the electric shock.
If scopolamine, an anticholinergic that is known to cause memory impairment, is administered before an animal's initial exposure to the test chamber, the animal re-enters the dark compartment shortly after being placed in the test chamber 24 hours later. This effect of scopolamine is blocked by an active test compound, resulting in a greater interval before re-entry into the dark compartment.
The results for an active compound are expressed as the percent of a group of animals in which the effect of scopolamine is blocked, as manifested by an increased interval between being placed in the test chamber and re-entering the dark compartment.
Results of this assay for some of the compounds of this invention and those for tacrine and pilocarpine (reference compounds) are presented in Table 2.

The target of assay [2] is T1, Brain AChE (acetylcholinesterase, rat striatum) (Rattus norvegicus, UniProt P37136).
T1 construct: corpora striata dissected free, weighed and homogenized in 19 volumes; from tissue; host or cells: corpus striatum homogenate of male Wistar rats
T1 sequence (P37136 32-614): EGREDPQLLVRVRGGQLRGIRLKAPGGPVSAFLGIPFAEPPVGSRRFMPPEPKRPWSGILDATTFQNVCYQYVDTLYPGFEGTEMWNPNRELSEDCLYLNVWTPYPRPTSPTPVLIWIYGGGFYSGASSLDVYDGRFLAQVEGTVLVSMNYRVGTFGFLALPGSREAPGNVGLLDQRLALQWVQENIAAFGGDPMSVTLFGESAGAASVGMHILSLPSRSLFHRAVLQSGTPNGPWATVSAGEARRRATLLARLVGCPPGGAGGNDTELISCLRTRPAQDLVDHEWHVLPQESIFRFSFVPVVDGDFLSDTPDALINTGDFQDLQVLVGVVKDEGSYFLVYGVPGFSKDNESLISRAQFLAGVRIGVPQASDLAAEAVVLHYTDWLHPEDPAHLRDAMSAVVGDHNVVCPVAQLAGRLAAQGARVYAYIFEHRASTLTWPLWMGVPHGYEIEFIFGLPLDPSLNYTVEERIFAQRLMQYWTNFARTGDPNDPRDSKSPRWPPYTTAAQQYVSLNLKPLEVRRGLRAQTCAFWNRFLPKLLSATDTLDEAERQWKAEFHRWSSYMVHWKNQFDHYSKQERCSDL
The assay is described as follows: In vitro inhibition of acetylcholinesterase activity in rat striatum. In kind it is biochemical, rat (male Wistar). The conditions noted are these: read-out: Inhibitory Concentration, Brain AChE. The protocol: Cholinesterases are found throughout the body, both in the brain and in serum. However, only brain acetylcholinesterase (AChE) distribution is correlated with central cholinergic innervation.
The method described below was used in this invention for assaying cholinesterase activity.
4. A 2 mM stock solution of the test drug is made up in a suitable solvent and q.s. to volume with 0.5 mM DTNB (reagent 3). Drugs are serially diluted (1:10) such that the final concentration (in cuvette) is 10^-4 M and screened for activity. If active, IC50 values are determined from the inhibitory activity of subsequent concentrations.
Male Wistar rats are decapitated, brains rapidly removed, corpora striata dissected free, weighed and homogenized in 19 volumes (approximately 7 mg protein/ml) of 0.05M phosphate buffer, pH 7.2 using a Potter-Elvehjem homogenizer. A 25 microliter aliquot of the homogenate is added to 1.0 milliter vehicle or various concentrations of the test drug and preincubated for 10 minutes at 37° C.
Enzyme activity is measured with the Beckman DU-50 spectrophotometer. This method can be used for IC50 determinations and for measuring kinetic constants.
Substrate concentration is 10 mM diluted 1:2 in assay yielding final concentration of 5 mM. DTNB concentration is 0.5 mM yielding 0.25 mM final concentration. [formula]
IC50 values are calculated from log-probit analysis.

Counter-ions that a name gives are not always drawn.

With `CC[C@@H]1C(=O)OC[C@@H]1Cc1cncn1C` [Pilocarpine, reference compound], the “% of Animals with Scopolamine Induced Memory Deficit Reversal” value in assay [1] (5 mg/kg of body weight) amounted to 23%. For `O=C1c2cccc3c2C(CCC3)C1CC1CCN(Cc2ccccc2)CC1` (stereo not shown) [2-[(N-Benzylpiperidin-4-yl)methyl]-2a,3,4,5-tetrahydro-1(2H)-acenaphthylen-1-one hydrochloride], in assay [2], the IC50 was 1.02 µM.

`O=C1c2cccc3c2C(CCC3)C1CC1CCN(Cc2cccc(F)c2)CC1` (stereo not shown) [2-[[N-(3-Fluorobenzyl)piperidin-4-yl]methyl]-2a,3,4,5-tetrahydro-1(2H)-acenaphthylen-1-one hydrochloride]: in assay [2], the IC50 came out at 4.1 µM. In addition, the “% of Animals with Scopolamine Induced Memory Deficit Reversal” value in assay [1] (0.1 mg/kg of body weight) amounted to 20%.

Values taken from US5106856A, “[(Arylalkylpiperidin-4-yl)methyl]-2a,3,4,5-tetrahydro- 1(2H)-acenaphthylen-1-ones and related compounds” (priority 1991, dated 1992).
